Assay results as given in patent US6451828B1, “Selective inhibition of glutaminase by bis-thiadiazoles” (priority 2000, dated 2002).
pIC50: −log10 of the molar value.

Legend:
[1] = biological target: T1, human kidney glutaminase (Homo sapiens, UniProt O94925); assay: Glutaminase inhibition: cell free assay; format: biochemical
T1 construct: made in house; host or cells: SF9 insect cells (alternatively HEK human kidney cells); cell lysate
T1 sequence (O94925 55-669): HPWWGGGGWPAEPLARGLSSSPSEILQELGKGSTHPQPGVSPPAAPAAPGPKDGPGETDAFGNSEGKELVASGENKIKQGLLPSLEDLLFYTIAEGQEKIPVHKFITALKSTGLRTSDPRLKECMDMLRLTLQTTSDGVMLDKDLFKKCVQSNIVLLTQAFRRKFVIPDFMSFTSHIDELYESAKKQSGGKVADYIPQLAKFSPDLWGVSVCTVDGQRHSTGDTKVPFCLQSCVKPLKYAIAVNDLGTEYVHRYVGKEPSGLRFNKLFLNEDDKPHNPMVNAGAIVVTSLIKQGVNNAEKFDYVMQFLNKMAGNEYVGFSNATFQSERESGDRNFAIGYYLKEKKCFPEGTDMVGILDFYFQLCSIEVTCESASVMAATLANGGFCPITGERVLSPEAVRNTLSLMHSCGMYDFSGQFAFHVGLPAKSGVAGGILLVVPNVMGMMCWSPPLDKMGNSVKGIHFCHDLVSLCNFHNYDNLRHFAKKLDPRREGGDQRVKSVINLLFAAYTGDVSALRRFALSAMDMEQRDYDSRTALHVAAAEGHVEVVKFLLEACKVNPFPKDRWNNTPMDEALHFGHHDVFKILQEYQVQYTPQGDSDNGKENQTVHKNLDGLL
Experimental: Compounds of formula I were tested for inhibition of human kidney glutaminase as described in Example 2.
Glutaminase Inhibition: Cell Free Assay
Glutaminase gene-transfected SF9 cells were collected in a 50-mL polypropylene conical tube by centrifugation at 500×g for 10 min (Eppendorf Centrifuge 5810R, F34-6-38 rotor). The supernatant was discarded, and the cell pellet was stored at −80° C. For preparation of the lysate, the cells were thawed on ice and resuspended by pipetting in 0.8 mL cold lysis buffer with 0.5 mM 4-(2-aminoethyl)- benzenesulfonyl fluoride (AEBSF), a serine protease inhibitor. The suspension was stored in ice for 20 min, then subjected to two freeze-thaw cycles (liquid nitrogen followed by a room temperature water bath).
The volume of the cell homogenate was measured, and 1/3 volume of 1 M sucrose was added, to give a final concentration of 0.25 M sucrose. Aliquots 100 μL in volume were placed in 1.5 mL microtubes and stored at −80° C.
Alternatively, HEK (human kidney) cells were used. The medium was removed by aspiration, 5 mL PBS/1 mM EDTA was added, and the culture was incubate for 3 min to allow cells to detach. The cells were collected in a 50-mL conical tube using Eppendorf Centrifuge 5810R, F34-6-38 rotor, and spun at 200×g for 5 min. The supernatant was discarded, and the cell pellet was resuspended pipetting (approximately 0.12 g wet weight) in 0.3 mL lysis buffer with 0.5 mM AEBSF. The tube was left in ice for 20 min. […] subjected to two freeze-thaw cycles as described above. Aliquots 100 μL in volume were placed in 1.5 mL microtubes and stored at −80° C.
The activity of the enzyme was determined colorimetrically. One unit of enzyme activity is defined as the amount of enzyme required to generate net OD 540nm=0.6 in a total reaction volume of 220 μL in one hour at room temperature.
Assay plates were prepared containing 2 μL test compound in DMSO/well. The enzyme was diluted to 1 unit (liver) or 0.8 unit (kidney)/100 μL in glutaminase assay buffer, and 100 μl diluted enzyme was added to each well of the assay plate by Multidrop (Labsystems). The contents were mixed by shaking at full speed for 1 min on TiterMix 100 (Brinkmann). The plates were preincubated at room temperature (RT) for 20 min to allow binding of test compounds to glutaminase, and 50 μL glutamine solution (7 mM in assay buffer) was added to each well by Multidrop. The contents were shaken at full speed for 30 sec on TiterMix 100 (Brinkmann), and the plates were then incubated at RT for 60 min (liver) or 90 min (kidney). To stop the reactions, 20 μL HCl (0.3 N) was added to each well by Multidrop and mixed immediately by shaking for 30 sec on TiterMix 100.
For quantification, glutamate (formed by glutaminase-catalyzed hydrolysis of glutamine) is oxidized to 2-oxoglutarate by a second enzyme, glutamate dehydrogenase (GDH), with the concomitant production of the reduced form of nicotinamide adenine dinucleotide (NADH). Reduction of nitro blue tetrazolium (NBT) in the assay solution by NADH, catalyzed by phenazine methosulphate (PMS), results in the formation of a blue-purple formazan. The absorption of formazan at 540 nm is linearly proportional to the concentration of glutamate up to 200 μM.
NBT/GDH reagent (50 μl) was added to each well by Multidrop and mixed by shaking for 30 sec on TiterMix 100, and the plates were incubated at RT for 20 min to allow color formation by the GDH reaction. Glutamate concentration was determined from formazan concentration as determined by reading OD540 nm on a SpectraMax 340.

[2] = tested on: isolated neurons; conditions: Dugan et al., 1995; read-out: IC50 for toxicity on isolated neurons; cited from earlier work
[3] = tested on: microglia (BV-2) cells; assay: Inhibition of microglial glutamate secretion; format: cell-based
Experimental: As described in Wood, glutamate efflux from microglia is dependent on the presence of added external glutamine. […] Therefore, the concentration of glutamate in the culture medium can be used directly as a measure of glutamate production by these cells.
In assaying the invention compounds, microglia (BV-2) cells were cultured using standard methods, as described in Example 4. On the day of the experiment, cells were incubated in glutamine free medium for 1 to 1.5 hours, then glutamine and test compounds, dissolved in glutamine free medium, were added. Aliquots were removed at 2 h and 4 h for glutamate analysis.
Inhibition of Microglial Glutamate Secretion
BV-2 cells were cultured in 24 well plates using Dulbeccos minimal essential medium containing 10% heat inactivated fetal bovine serum, and grown to 70-80% confluency before use. On the day of the experiment, cells were placed in glutamine free medium for 1 to 1.5 hours. […] This solution was used to replace one half of the 0.5 mL culture medium volume at the end of the glutamine free incubation. Aliquots of 10 μL medium were removed at 2 h and 4 h and placed in 96 well microtiter plates with 90 μL DMF/water (1:9) for glutamate analysis.

Compound: O=C(Nc1nnc(CCSCCc2nnc(NC(=O)c3ccccc3)s2)s1)c1ccccc1 [SNX-1830]
- pIC50 [1]: 5.97

Compound: N[C@@H](CCC(=O)O)C(=O)O [glutamate]
- pIC50 [2]: 5.00 to 5.30

Compound: COc1ccccc1C(=O)Nc1nnc(CCSCCc2nnc(NC(=O)c3ccccc3OC)s2)s1 [SNX-1855]
- pIC50 [1]: 5.31

Compound: O=C(Nc1nnc(CCSCCc2nnc(NC(=O)c3cccs3)s2)s1)c1cccs1 [SNX-1837]
- pIC50 [1]: 6.41

Compound: CC(C)(C)C(=O)Nc1nnc(CCSCCc2nnc(NC(=O)C(C)(C)C)s2)s1 [SNX-1851]
- pIC50 [1]: 5.78

Compound: CCOC(=O)Nc1nnc(CCSCCc2nnc(NC(=O)OCC)s2)s1 [SNX-1852]
- pIC50 [1]: 5.75

Compound: Cc1cccc(C(=O)Nc2nnc(CCSCCc3nnc(NC(=O)c4cccc(C)c4)s3)s2)c1 [SNX-1831]
- pIC50 [1]: 5.95

Compound: O=C(Nc1nnc(CCSCCc2nnc(NC(=O)c3ccco3)s2)s1)c1ccco1 [SNX-1836]
- pIC50 [1]: 5.95

Compound: COc1ccc(C(=O)Nc2nnc(CCSCCc3nnc(NC(=O)c4ccc(OC)cc4)s3)s2)cc1 [SNX-1832]
- pIC50 [1]: 6.34

Compound: [N-]=[N+]=CC(=O)CC[C@H](N)C(=O)O [DON, 6-diazo-5-oxo-L-norleucine, reference compound]
- Glutamine dependent glutamate efflux from microglia [3]: inhibited
